Type in all cases: functional
Experiment [1] has as its system Human alphaherpesvirus 1. Briefly: Cumulative mortality in percent of HSV-1 infected mice, after peroral administration of 1 mg/kg of compound. The note with it: route oral.
Experiment [2] has as its system Human alphaherpesvirus 1. Kind of experiment: Cumulative mortality in percent of HSV-1 infected mice, after intraperitoneal administration of 0.5 mg/kg of compound.
The test system of experiment [3] is Human alphaherpesvirus 1. Kind of experiment: Mean survival time in HSV-1 infected mice, after peroral administration of 10 mg/kg of compound. The following applies: route oral.
Experiment [4] relates to Human alphaherpesvirus 1. Briefly: Mean survival time in HSV-1 infected mice, after intraperitoneal administration of 5 mg/kg of compound.
Experiment [5] relates to Human alphaherpesvirus 1. Briefly: Minimum inhibitory concentration causing 25% inhibition of cytopathic effect induced by Herpes simplex virus-1 (K979) in HEp-2 cells. For orientation: Damage to the host cells serves as the signal in cytopathic effect assays.
For experiment [6], the species on record is Oryctolagus cuniculus. Briefly: Minimum cytotoxic concentration causing toxic effects on uninfected cells in rabbit.
Experiment [7] relates to Human alphaherpesvirus 1. Kind of experiment: Minimum inhibitory concentration causing 25% inhibition of cytopathic effect induced by Herpes simplex virus-1 (Brand) in vero cells.
For experiment [8], the system named is Human alphaherpesvirus 1. Briefly: Minimum inhibitory concentration causing 25% inhibition cytopathic effect induced by Herpes simplex virus-1 (Brand) in HEp-2 cells.
Experiment [9] has as its system Human alphaherpesvirus 1. Briefly: Cumulative mortality in percent of HSV-1 infected mice, after intraperitoneal administration of 5 mg/kg of compound.
Experiment [10] deals with Human alphaherpesvirus 1. Kind of experiment: Mean survival time in HSV-1 infected mice, after intraperitoneal administration of 0.5 mg/kg of compound.
Experiment [11] relates to Human alphaherpesvirus 1. Briefly: Cumulative mortality in percent of HSV-1 infected mice, after peroral administration of 10 mg/kg of compound. The following applies: route oral.
Experiment [12] relates to Human alphaherpesvirus 1. Briefly: Mean survival time in HSV-1 infected mice, after peroral administration of 1 mg/kg of compound. The following applies: route oral.
For experiment [13], the system named is Human alphaherpesvirus 1. Kind of experiment: Cumulative mortality in percent of HSV-1 infected mice, after peroral administration of 5 mg/kg of compound. The note with it: route oral.
The subject of experiment [14] is Human alphaherpesvirus 1. Kind of experiment: Mean survival time in HSV-1 infected mice, after peroral administration of 5 mg/kg of compound. The following applies: route oral.
Experiment [15] relates to Human alphaherpesvirus 1. Kind of experiment: Minimum inhibitory concentration causing 25% inhibition of cytopathic effect induced by herpes simplex virus (HSV)-1 (K979) in vero cells.
The test system of experiment [16] is Human alphaherpesvirus 1. Kind of experiment: Mean survival time in HSV-1 infected mice, after intraperitoneal administration of 1 mg/kg of compound.
Experiment [17] deals with Human alphaherpesvirus 1. Kind of experiment: Cumulative mortality in percent of HSV-1 infected mice, after intraperitoneal administration of 1 mg/kg of compound.
For experiment [18], the system named is Mus musculus. Kind of experiment: Cumulative lesions in HSV-1 infected mice, after administration of 0.1 % of compound intracutaneously.
The test system of experiment [19] is Mus musculus. Kind of experiment: Mean duration of lesions in HSV-1 infected mice, after administration of 0.1 % of compound intracutaneously.
Experiment [20] has as its system Human alphaherpesvirus 1. Briefly: Minimum inhibitory concentration causing 25% inhibition of cytopathic effect induced by Herpes simplex virus(HSV) -1 (thymidine kinase deficient) in HEp-2 cells.
Experiment [21] has as its system Human alphaherpesvirus 2. Briefly: Minimum inhibitory concentration causing 25% inhibition of cytopathic effect induced by Herpes simplex virus(HSV) -2 (thymidine kinase deficient) in vero cells.
Experiment [22] concerns Human alphaherpesvirus 2. Kind of experiment: Minimum inhibitory concentration causing 25% inhibition of cytopathic effect induced by Herpes simplex virus(HSV) -2 (thymidine kinase deficient) in HEp-2 cells.
In experiment [23] the test system is Human alphaherpesvirus 1. Briefly: Minimum inhibitory concentration causing 25% inhibition of cytopathic effect induced by Herpes simplex virus(HSV) -1 (thymidine kinase deficient) in vero cells.

In brackets after ≈: the same amount, converted by molar mass.

`CCOC(=O)CP(=O)(O)OC[C@H]1O[C@@H](n2cc(CCCl)c(=O)[nH]c2=O)C[C@@H]1O`: the CMP in experiment [1] stood at 83; in [2], 75; in experiment [9], 42; in experiment [11], 42; in experiment [13], 58; in [17], 83. The MST in experiment [3] was found to be 15.9 days; in [4] it was 15.5 days; in experiment [10] it was 12.2 days; in [12], 11.9 days; in experiment [14], 13.6 days; in experiment [16] it was 11.3 days. Besides, the MIC in experiment [5], in experiment [7], in experiment [8] and in [15] was greater than 227 µM each time. The same compound displayed an MTC in [6] of 749 µM.
For the compound `CCOC(=O)CP(=O)(OC)OC[C@H]1O[C@@H](n2ccc(=O)[nH]c2=O)C[C@@H]1O` (some centres undefined), the MIC in [5], in experiment [7], in experiment [8] and in experiment [15] was greater than 255 µM each time. In addition, in experiment [6], the MTC result is given as “>=842 uM”.
For `COP(=O)(CC(=O)OC[C@H]1O[C@@H](n2cc(C)c(=O)[nH]c2=O)C[C@@H]1O)OC`, the MIC in [5], in experiment [7], in experiment [8] and in [15] was greater than 255 µM each time. Besides, the MTC result in experiment [6] is “>=842 uM”.
As to `CCOC(=O)P(=O)(O)O[C@H]1C[C@H](n2cc(CCCl)c(=O)[nH]c2=O)O[C@@H]1CO`, the CMP in experiment [1] was determined as 83; in [2], 83; in experiment [9], 8; in experiment [11] it was 75; in experiment [13], 75; in [17], 42. The lesions in [18] turned out to be 90. Moreover, the MST in experiment [3] stood at 11.8 days; in [4] it was 18.9 days; in experiment [10] it was 11.5 days; in experiment [12], 11.3 days; in [14], 11.9 days; in experiment [16] it was 15.6 days. In addition, the MIC was greater than 234 µM in [5], 234 µM (≈ 99.9 µg/mL) in experiment [7], greater than 234 µM in experiment [8] and greater than 234 µM in [15]. Also, the MTC result in experiment [6] is on record as “>=773 uM”. The compound also came in with an MDL in [19] of 9.7 days.
As for `COC(=O)P(=O)(O)O[C@H]1C[C@H](n2cc(CCCl)c(=O)[nH]c2=O)O[C@@H]1CO`, the MIC in experiment [5], in experiment [7], in [8] and in experiment [15] was greater than 242 µM in each case. Besides, the MTC result in experiment [6] is “>=800 uM”.
As for `O=C(OCc1ccccc1)P(=O)(O)OC[C@H]1O[C@@H](n2cc(CCCl)c(=O)[nH]c2=O)C[C@@H]1O`, the CMP amounted to 67 in experiment [1]; 67 in experiment [2]; 8 in [9]; 33 in experiment [11]; 50 in experiment [13]; 33 in experiment [17]. Further, the MIC was greater than 205 µM in [20]; greater than 205 µM in [5]; 20.5 µM (≈ 10 µg/mL) in experiment [7]; 20.5 µM (≈ 10 µg/mL) in [8]; 205 µM (≈ 100 µg/mL) in experiment [21]; greater than 205 µM in experiment [22]. In addition, the MIC was greater than 205 µM in experiment [15] and 20.5 µM (≈ 10 µg/mL) in experiment [23]. Further, the lesions in experiment [18] worked out at 100. In addition, the MST was 16.8 days in [3]; 19.3 days in [4]; 13.8 days in experiment [10]; 12.7 days in experiment [12]; 14.3 days in [14]; 16.3 days in experiment [16]. For the same compound, the MTC in experiment [6] turned out to be 675 µM. For the same compound, the MDL in experiment [19] was 8.1 days.
As for `CC(C)(C)OC(=O)CP(=O)(O)OC[C@H]1O[C@@H](n2cc(CCCl)c(=O)[nH]c2=O)C[C@@H]1O`, the CMP in experiment [1] was 83; in experiment [2], 67; in experiment [9], 50; in experiment [11], 58; in [13] it was 83; in [17] it was 67. Besides, the MST is 13.3 days in experiment [3]; 15.4 days in [4]; 12.9 days in experiment [10]; 11.5 days in experiment [12]; 11.3 days in experiment [14]; 12.8 days in experiment [16]. Further, the MIC in [5], in [7], in experiment [8] and in experiment [15] was greater than 213 µM throughout. Further, in experiment [6], the MTC result is “>=704 uM”.
On to `COC(=O)P(=O)(O)OC[C@H]1O[C@@H](n2cc(CCCl)c(=O)[nH]c2=O)C[C@@H]1O`, for which the CMP was determined as 75 in experiment [1]; 75 in [2]; 33 in experiment [9]; 75 in [11]; 67 in experiment [13]; 58 in experiment [17]. Besides, the MIC in experiment [20] was greater than 242 µM; in experiment [5], 242 µM (≈ 99.9 µg/mL); in experiment [7] it was 24.2 µM (≈ 9.99 µg/mL); in [8] it was 24.2 µM (≈ 9.99 µg/mL); in [21], greater than 242 µM; in experiment [22] it was greater than 242 µM. Moreover, the MIC in experiment [15] is greater than 242 µM; in experiment [23] it was 242 µM (≈ 99.9 µg/mL). In addition, the MST in experiment [3] is 13.7 days; in experiment [4], 16.3 days; in experiment [10], 11.8 days; in [12], 12.6 days; in experiment [14], 12.7 days; in experiment [16], 14.1 days. For the same compound, the MTC entry in experiment [6] was “>=800 uM”.
The compound `CCOC(=O)CP(=O)(O)O[C@H]1C[C@H](n2cc(CCCl)c(=O)[nH]c2=O)O[C@@H]1CO` gave a lesions in experiment [18] of 80. Also, the MIC in [5], in [7], in [8] and in experiment [15] was greater than 227 µM each time. Further, the MTC in experiment [6] amounted to 749 µM. The compound also returned an MDL in experiment [19] of 9.4 days.
On to `COP(=O)(CC(=O)O[C@H]1C[C@H](n2cc(CCCl)c(=O)[nH]c2=O)O[C@@H]1CO)OC`, for which the MIC in experiment [20] is greater than 227 µM; in experiment [5] it was 6.8 µM (≈ 3 µg/mL); in experiment [7] it was 0.7 µM (≈ 0.309 µg/mL); in [8], 68.1 µM (≈ 30 µg/mL); in experiment [21], 227 µM (≈ 100 µg/mL); in experiment [22] it was greater than 227 µM. Moreover, the MIC was 22.7 µM (≈ 10 µg/mL) in experiment [15] and 227 µM (≈ 100 µg/mL) in experiment [23]. The same compound showed an MTC in experiment [6] of 227 µM.
Regarding `CCOC(=O)P(=O)(Nc1ccccc1)OC[C@H]1O[C@@H](n2cc(CCCl)c(=O)[nH]c2=O)C[C@@H]1O` (some centres undefined), the CMP is listed as 100 in experiment [1]; 75 in [2]; 25 in experiment [9]; 25 in experiment [11]; 50 in experiment [13]; 67 in experiment [17]. In addition, the MIC in experiment [20] was greater than 199 µM; in experiment [5], 59.8 µM (≈ 30 µg/mL); in [7], 2 µM (≈ 1 µg/mL); in [8] it was 2 µM (≈ 1 µg/mL); in experiment [21], 199 µM (≈ 99.9 µg/mL); in [22] it was greater than 199 µM. The MIC was greater than 199 µM in experiment [15] and 59.8 µM (≈ 30 µg/mL) in [23]. Also, the MST worked out at 17.8 days in experiment [3]; 18 days in [4]; 13.1 days in experiment [10]; 11.4 days in experiment [12]; 15.4 days in experiment [14]; 13.9 days in experiment [16]. The same compound showed an MTC in experiment [6] of 658 µM.
With `CCOC(=O)CP(=O)(OC)OC[C@H]1O[C@@H](n2cc(C)c(=O)[nH]c2=O)C[C@@H]1O` (some centres undefined), the MIC in experiment [5], in experiment [7], in experiment [8] and in experiment [15] was greater than 246 µM in each case. Moreover, the MTC entry in experiment [6] is reported as “>=812 uM”.
As for `CCOC(=O)P(=O)(OC)OC[C@H]1O[C@@H](n2cc(C)c(=O)[nH]c2=O)C[C@@H]1O` (some centres undefined), the MIC in [5], in [7], in experiment [8] and in [15] was greater than 255 µM throughout. Also, in experiment [6], the MTC entry is “>=842 uM”.
For `CCOC(=O)P(=O)(OC)OC[C@H]1O[C@@H](n2ccc(=O)[nH]c2=O)C[C@@H]1O` (some centres undefined), the MIC in [5], in [7], in [8] and in [15] was greater than 264 µM each time. The MTC result in experiment [6] is given as “>=872 uM”.
